# Molecular target: T1, human GLP-1 receptor (Homo sapiens, UniProt P43220)
# T1 construct: HA (N); expressed in transfected cells
# Assay: GLP-1 receptor-mediated agonist activity: cAMP level in hGLP-1R/HEK293 cell line (HTRF)
# Assay type: cell-based
# Conditions: cAMP levels in hGLP-1R/HEK293 cell line; Table 1; read-out: determined EC50
# T1 sequence (P43220 24-463): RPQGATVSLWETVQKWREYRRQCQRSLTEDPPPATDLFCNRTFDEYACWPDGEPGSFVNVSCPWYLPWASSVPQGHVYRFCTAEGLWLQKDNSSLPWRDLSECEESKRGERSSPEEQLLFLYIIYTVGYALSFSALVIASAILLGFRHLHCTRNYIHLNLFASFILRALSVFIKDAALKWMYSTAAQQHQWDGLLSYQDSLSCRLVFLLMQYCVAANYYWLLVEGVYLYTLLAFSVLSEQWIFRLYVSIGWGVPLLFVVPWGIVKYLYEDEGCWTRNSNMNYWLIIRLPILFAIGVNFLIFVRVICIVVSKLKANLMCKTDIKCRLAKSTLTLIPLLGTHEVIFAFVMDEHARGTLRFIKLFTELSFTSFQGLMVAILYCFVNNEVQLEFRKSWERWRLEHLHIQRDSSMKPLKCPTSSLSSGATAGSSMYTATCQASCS
row,Structure (SMILES),EC50 [pM]
1,"N#Cc1ccc(COc2cccc(N3C=NN(Cc4nc5c(OC(F)F)cc(C(=O)O)cc5n4C[C@@H]4CCO4)CC3)n2)c(F)c1 [Compound 11, (S)-2-((4-(6-((4-cyano-2-fluorobenzyl)oxy)pyridin-2-yl)-5,6-dihydro-1,2,4-triazin-1(4H)-yl)methyl)-4-(difluoromethoxy)-1-(oxetan-2-ylmethyl)-1H-benzo[d]imidazole-6-carboxylic acid]",13.3
2,"COc1cc(C(=O)O)cc2c1nc(CN1CCN(c3cccc4c3OC(C)(c3ccc(C(F)(F)F)cn3)O4)C=N1)n2C[C@@H]1CCO1 (stereo partly drawn) [Compound 65, 4-methoxy-2-((4-(2-methyl-2-(5-(trifluoromethyl)pyridin-2-yl)benzo[d][1,3]dioxol-4-yl)-5,6-dihydro-1,2,4-triazin-1(4H)-yl)methyl)-1-(((S)-oxetan-2-yl)methyl)-1H-benzo[d]imidazole-6-carboxylic acid]",49
3,"COc1cc(C(=O)O)cc2c1nc(CN1CCC(c3ccccc3OCc3ccc(C#N)c4c3OCC4)CC1)n2C[C@@H]1CCO1 [Compound 46, (S)-2-((4-(2-((4-cyano-2,3-dihydrobenzofuran-7-yl)methoxy)phenyl)piperidin-1-yl)methyl)-4-methoxy-1-(oxetan-2-ylmethyl)-1H-benzo[d]imidazole-6-carboxylic acid]",42.2
4,"COc1cc(C#N)ccc1COc1ccccc1C1CCN(Cc2nc3c(OC)cc(C(=O)O)cc3n2C[C@@H]2CCO2)CC1 [Compound 44, (S)-2-((4-(2-((4-cyano-2-methoxybenzyl)oxy)phenyl)piperidin-1-yl)methyl)-4-methoxy-1-(oxetan-2-ylmethyl)-1H-benzo[d]imidazole-6-carboxylic acid]",9.5
5,"CCOc1cc(C(=O)O)cc2c1nc(CN1CCC(c3cccc4c3OC(C)(c3ccc(C(F)(F)F)cn3)O4)CC1)n2C[C@@H]1CCO1 (stereo partly drawn) [Compound 56, 4-ethoxy-2-((4-(2-methyl-2-(5-(trifluoromethyl)pyridin-2-yl)benzo[d][1,3]dioxol-4-yl)piperidin-1-yl)methyl)-1-(((S)-oxetan-2-yl)methyl)-1H-benzo[d]imidazole-6-carboxylic acid]",9.8
6,"[2H]C([2H])([2H])C([2H])([2H])Oc1cc(C(=O)O)cc2c1nc(CN1CCN(c3cccc4c3OC(C)(c3ccc(F)cc3F)O4)C=N1)n2C[C@@H]1CCO1 (stereo partly drawn) [Compound 87, 2-((4-(2-(2,4-difluorophenyl)-2-methylbenzo[d][1,3]dioxol-4-yl)-5,6-dihydro-1,2,4-triazin-1(4H)-yl)methyl)-4-(ethoxy-d5)-1-(((S)-oxetan-2-yl)methyl)-1H-benzo[d]imidazole-6-carboxylic acid]",21.2
7,"N#Cc1ccc(COc2cccc(C3CCN(Cc4nc5c(OCC6CC6)cc(C(=O)O)cc5n4C[C@@H]4CCO4)CC3)n2)c(F)c1 [Compound 5, (S)-2-((4-(6-((4-cyano-2-fluorobenzyl)oxy)pyridin-2-yl)piperidin-1-yl)methyl)-4-(cyclopropylmethoxy)-1-(oxetan-2-ylmethyl)-1H-benzo[d]imidazole-6-carboxylic acid]",12
8,"COc1cc(C(=O)O)cc2c1nc(CN1CCC(c3cccc4c3OC(C)(c3ccc(C(F)(F)F)cn3)O4)CC1)n2C[C@@H]1CCO1 (stereo partly drawn) [Compound 55, 4-methoxy-2-((4-(2-methyl-2-(5-(trifluoromethyl)pyridin-2-yl)benzo[d][1,3]dioxol-4-yl)piperidin-1-yl)methyl)-1-(((S)-oxetan-2-yl)methyl)-1H-benzo[d]imidazole-6-carboxylic acid]",25.2
9,"COc1cc(Cl)ccc1C1(C)Oc2cccc(N3C=NN(Cc4nc5c(OC)cc(C(=O)O)cc5n4C[C@@H]4CCO4)CC3)c2O1 (stereo partly drawn) [Compound 83, 2-((4-(2-(4-chloro-2-methoxyphenyl)-2-methylbenzo[d][1,3]dioxol-4-yl)-5,6-dihydro-1,2,4-triazin-1(4H)-yl)methyl)-4-methoxy-1-(((S)-oxetan-2-yl)methyl)-1H-benzo[d]imidazole-6-carboxylic acid]",9.2
10,"COc1cc(C(=O)O)cc2c1nc(CN1CCC(c3ccccc3OCc3ccc(C#N)cc3F)CC1)n2C[C@@H]1CCO1 [Compound 47, (S)-2-((4-(2-((4-cyano-2-fluorobenzyl)oxy)phenyl)piperidin-1-yl)methyl)-4-methoxy-1-(oxetan-2-ylmethyl)-1H-benzo[d]imidazole-6-carboxylic acid]",61.3
11,"[2H]C([2H])([2H])C([2H])([2H])Oc1cc(C(=O)O)cc2c1nc(CN1CCN(c3cccc4c3OC(C)(c3ccc(Cl)c(F)c3F)O4)C=N1)n2C[C@@H]1CCO1 (stereo partly drawn) [Compound 77, 2-((4-(2-(4-chloro-2,3-difluorophenyl)-2-methylbenzo[d][1,3]dioxol-4-yl)-5,6-dihydro-1,2,4-triazin-1(4H)-yl)methyl)-4-(ethoxy-d5)-1-(((S)-oxetan-2-yl)methyl)-1H-benzo[d]imidazole-6-carboxylic acid]",16.5
12,"CCOc1cc(C(=O)O)cc2c1nc(CN1CCC(c3cccc4c3OC(C)(c3ccc(Cl)cn3)O4)CC1)n2C[C@@H]1CCO1 (stereo partly drawn) [Compound 39, 2-((4-(2-(5-chloropyridin-2-yl)-2-methylbenzo[d][1,3]dioxol-4-yl)piperidin-1-yl)methyl)-4-ethoxy-1-(((S)-oxetan-2-yl)methyl)-1H-benzo[d]imidazole-6-carboxylic acid]",8
13,"CCOc1cc(C(=O)O)cc2c1nc(CN1CCN(c3cccc4c3OC(C)(c3ccc(Cl)cn3)O4)C=N1)n2C[C@@H]1CCO1 (stereo partly drawn) [Compound 69, 2-((4-(2-(5-chloropyridin-2-yl)-2-methylbenzo[d][1,3]dioxol-4-yl)-5,6-dihydro-1,2,4-triazin-1(4H)-yl)methyl)-4-ethoxy-1-(((S)-oxetan-2-yl)methyl)-1H-benzo[d]imidazole-6-carboxylic acid]",11.1
14,"CCOc1cc(C(=O)O)cc2c1nc(CN1CCC(c3cccc(OCc4ccc(C(F)(F)F)cc4F)n3)CC1)n2C[C@@H]1CCO1 [Compound 28, (S)-4-ethoxy-2-((4-(6-((2-fluoro-4-(trifluoromethyl)benzyl)oxy)pyridin-2-yl)piperidin-1-yl)methyl)-1-(oxetan-2-ylmethyl)-1H-benzo[d]imidazole-6-carboxylic acid]",7.4

# The remaining lines, values ahead:
row,EC50 [pM],Structure (SMILES)
1,6.5,"[2H]C([2H])([2H])Oc1cc(C(=O)O)cc2c1nc(CN1CCC(c3cccc4c3OC(C)(c3ccc(Cl)cc3F)O4)CC1)n2C[C@@H]1CCO1 (stereo partly drawn) [Compound 74, 2-((4-(2-(4-chloro-2-fluorophenyl)-2-methylbenzo[d][1,3]dioxol-4-yl)piperidin-1-yl)methyl)-4-(methoxy-d3)-1-(((S)-oxetan-2-yl)methyl)-1H-benzo[d]imidazole-6-carboxylic acid]"
2,6.7,"CCOc1cc(C(=O)O)cc2c1nc(CN1CCC(c3cccc4c3OC(C)(c3ccc(Cl)cc3F)O4)CC1)n2C[C@@H]1CCO1 (stereo partly drawn) [Compound 37, 2-((4-(2-(4-chloro-2-fluorophenyl)-2-methylbenzo[d][1,3]dioxol-4-yl)piperidin-1-yl)methyl)-4-ethoxy-1-(((S)-oxetan-2-yl)methyl)-1H-benzo[d]imidazole-6-carboxylic acid]"
3,1.1,"CCOc1cc(C(=O)O)cc2c1nc(CN1CCC(c3cccc(OCc4ccc(C#N)cc4F)n3)CC1)n2C[C@@H]1CCO1 [Compound 2, (S)-2-((4-(6-((4-cyano-2-fluorobenzyl)oxy)pyridin-2-yl)piperidin-1-yl)methyl)-4-ethoxy-1-(oxetan-2-ylmethyl)-1H-benzo[d]imidazole-6-carboxylic acid]"
4,2.8,"COc1cc(Cl)ccc1C1(C)Oc2cccc(C3CCN(Cc4nc5c(OC)cc(C(=O)O)cc5n4C[C@@H]4CCO4)CC3)c2O1 (stereo partly drawn) [Compound 57, 2-((4-(2-(4-chloro-2-methoxyphenyl)-2-methylbenzo[d][1,3]dioxol-4-yl)piperidin-1-yl)methyl)-4-methoxy-1-(((S)-oxetan-2-yl)methyl)-1H-benzo[d]imidazole-6-carboxylic acid]"
5,2.6,CCOc1cc(C(=O)O)cc2c1nc(CN1CCC(c3cccc4c3OC(C)(c3ccc(C(F)(F)F)cc3OC)O4)CC1)n2C[C@@H]1CCO1 (stereo partly shown) [Compound 60]
6,5,"CCOc1cc(C(=O)O)cc2c1nc(CN1CCN(c3cccc4c3OC(C)(c3ccc(Cl)cc3OC)O4)C=N1)n2C[C@@H]1CCO1 (stereo partly drawn) [Compound 85, 2-((4-(2-(4-chloro-2-methoxyphenyl)-2-methylbenzo[d][1,3]dioxol-4-yl)-5,6-dihydro-1,2,4-triazin-1(4H)-yl)methyl)-4-ethoxy-1-(((S)-oxetan-2-yl)methyl)-1H-benzo[d]imidazole-6-carboxylic acid]"
7,1.2,"CCOc1cc(C(=O)O)cc2c1nc(CN1CCC(c3cccc(OCc4ccc(C(F)(F)F)cc4OC)n3)CC1)n2C[C@@H]1CCO1 [Compound 52, (S)-4-ethoxy-2-((4-(6-((2-methoxy-4-(trifluoromethyl)benzyl)oxy)pyridin-2-yl)piperidin-1-yl)methyl)-1-(oxetan-2-ylmethyl)-1H-benzo[d]imidazole-6-carboxylic acid]"
8,1,"CCOc1cc(C(=O)O)cc2c1nc(CN1CCN(c3cccc(OCc4ccc(Cl)cc4F)n3)C=N1)n2C[C@@H]1CCO1 [Compound 21, (S)-2-((4-(6-((4-chloro-2-fluorobenzyl)oxy)pyridin-2-yl)-5,6-dihydro-1,2,4-triazin-1(4H)-yl)methyl)-4-ethoxy-1-(oxetan-2-ylmethyl)-1H-benzo[d]imidazole-6-carboxylic acid]"

# Same assay, conditions: cAMP levels of the hGLP-1R/HEK293 cell line; Table 2, comparison with reference compounds; read-out: EC50
row,EC50 [pM],Structure (SMILES)
1,45.8,"O=C(O)c1ccc2nc(CN3CCC(c4cccnc4OCc4ccc(Cl)cc4F)CC3)n(C[C@@H]3CCO3)c2c1 [WO2019239371 , Example 1, reference compound]"
2,26.1,"N#Cc1ccc(COc2cccc(C3CCN(Cc4nc5c(F)cc(C(=O)O)cc5n4C[C@@H]4CCO4)CC3)n2)c(F)c1 [WO2022109182 , Example 21, reference compound]"
3,22,"CC1(c2ccc(Cl)cc2F)Oc2cccc(C3CCN(Cc4nc5ccc(C(=O)O)cc5n4C[C@@H]4CCO4)CC3)c2O1 (stereo partly shown) [WO2019239319 , Example 7, reference compound]"

# — patent publication EP4650353A1 (Shanghai Institute of Materia Medica, Chinese Academy of …, priority 2023, dated 2024)
